Values quoted from earlier work as cited in patent publication US6900317B2, “Salts of the CGRP antagonist BIBN4096 and inhalable powdered medicaments containing them” (Boehringer Ingelheim Pharma GmbH & Co. KG, priority 2002, dated 2005).

Details: conventional preparations

NCCCC[C@H](NC(=O)[C@@H](Cc1cc(Br)c(O)c(Br)c1)NC(=O)N1CCC(N2Cc3ccccc3NC2=O)CC1)C(=O)N1CCN(c2ccncc2)CC1 [BIBN4096, 1-[N^2-[3,5-dibromo-N-[[4-(3,4-dihydro-2(1H)-oxoquinazolin-3-yl)-1-piperidinyl]carbonyl]-D-tyrosyl]-L-lysyl]-4-(4-pyridinyl)-piperazine]
bioavailability by oral route: only limited bioavailability
